The test system of the assay is retinal neovascularization. Nature of the assay: rat pup model of retinopathy of prematurity (oxygen-induced retinopathy). Type of assay: in vivo. As to conditions: for inhibition of retinal neovascularization: newborn rat pups exposed to varying oxygen. How it is done: Anecortave acetate was tested for its angiostatic efficacy in a rat pup model of retinopathy of prematurity (Penn, at al., Investigative Ophthalmology & Visual Science, “The Effect of an Angiostatic Steroid on Neovascularization in a Rat Model of Retinopathy of Prematurity,” Vol. 42(1):283-290, January 2001). Newborn rat pups were placed in an atmosphere of varying oxygen content. The rats received a single intravitreal injection of vehicle or anecortave acetate (500 μg) upon return to room air (day 14) or 2 days later (day 16). There was significant retinal neovascularization in the rats that received vehicle injections.

Each structure is given as a SMILES string.

On to `CC(=O)OCC(=O)[C@@]1(O)CC[C@H]2[C@@H]3CCC4=CC(=O)CC[C@]4(C)C3=CC[C@@]21C` [Anecortave acetate, 4,9(11)-pregnadien-17α,21-diol-3,20dione-21-acetate], for which the “preretinal neovascularization (neovascular score)” value (local administration, rat model of oxygen-induced retinopathy, FIG. 1) was “inhibits preretinal neovascularization”. Besides, the “inhibition of retinal neovascularization” value worked out at 50% (single intravitreal injection 500 μg 2 days after return to room air (day 16)) and 66% (single intravitreal injection 500 μg upon return to room air (day 14)).

Values taken from patent US20070043006A1, “Formulations of non-steroidal anti-inflammatory agents to treat pathologic ocular angiogenesis” (priority 2003, published 2007).
